In patent US5719145A, “Amidine derivatives and platelet aggregation inhibitor containing the same” (Mitsui Toatsu Chemicals, Inc., priority 1996, dated 1998):
Where a name gives a salt, the structure may show the parent alone.

How the values were obtained:
[1] = biological target: T1, human fibrinogen receptor GP IIb/IIIa (Homo sapiens, UniProt P05106+P08514); experiment: Binding inhibition of biotinylated fibrinogen to GP IIb/IIIa; settings: purified human GP IIb/IIIa, read-out: Inhibition of GPIIb/IIIa . Fibrinogen Binding, IC50
T1 construct: Concentrated and lyophilized human platelet (20 vial) (Organon Teknika Co.) was lysed; tissue Organon Teknika Co; host or cells: human platelets (lyophilized), lysed in Triton X-100
Procedure: Experiment for binding inhibition between GP IIb/IIIa and fibrinogen
1. Purification of human fibrinogen receptor GP IIb/IIIa
Concentrated and lyophilized human platelet (20 vial) (Organon Teknika Co.) was lysed in an antienzymic solution (80 ml) (1% Triton X-100, 10 mM Tris-HCl, 150 mM NaCl, 1 mM CaCl2, 10 μM leupeptin, 1 mM phenylmethane sulfonyl fluoride, pH 7.4), allowed to incubate for an hour at 4° C., and centrifuged at 30,000×g for 15 minutes to recover the supernatant solution containing 150 mg of protein. The GP IIb/IIIa was purified according to the method of Phillips et al. [Methods in Enzymology Vol. 215, (J. J. Hawigar, Eds.), 244-263, Acedemic Press Inc., San Diego].
2. Preparation of biotinylated fibrinogen
Human fibrinogen Grade L (KABI Co.) was purified by using Shepharose CL-6B and Lysine-Sepharose. Thus purified human fibrinogen (2.3 mg/ml) was dialyzed for 3 hours with 0.1M aqueous sodium bicarbonate solution at room temperature and successively diluted to 1 mg/ml. To the solution (4.5 ml) obtained, NHC-LC-Biotin (2 mg) (Pierce Co.) was added and reacted for 1 hour at room temperature to biotinylate fibrinogen. The reaction mixture was dialyzed at 4° C. for 24 hours with TBS (20 mM Tris-HCl, 150 mM NaCl, 1 mM CaCl2, 1 mM MgCl2, pH 7.4) to obtain biotinylated fibrinogen.
3. Binding inhibition of biotinylated fibrinogen to GP IIb/IIIa
Specimen drugs were dissolved and diluted with TBS containing 1% BSA. To each solution, an equal volume of biotinylated fibrinogen (2 μg/ml) dissolved in TBS containing 1% BSA, was added. The inhibition percentage of specimen drugs were measured by the method of Mori et al. [Jpn. J. Thromb. Hemost., 2, 323-399 (1991) with small modification].
Purified GP IIb/IIIa was diluted to 1.5 μg/ml in TBS containing 0.0005% of Triton X-100. The GP IIb/IIIa solution was added to a 96 well microplate (E.I.A/R.I.A. Plate, Costar Co.) in a volume of 100 μl for each well, and incubated at 4° C. for 24 hours to immobilize GP IIb/IIIa. The microplate was washed twice with a washing solution (TBS containing 0.01% of Tween 20). Thereafter TBS containing 3.5% of BSA was added to each well in a volume of 200 μl and blocking was carried out for about an hour at room temperature. The microplate was further washed twice with the washing solution, and successively a mixture of the specimen drug and the biotinylated fibrinogen was added in a volume of 100 μl/well and incubated for 24 hours at room temperature. The microplate was thereafter washed five times, and peroxidase-labeled streptoavidin (a kit of Amersham Co.) which was previously diluted 3000 times with TBS was added in a volume of 100 μl/well and incubated for about 30 minutes at room temperature. After washing the microplate 5 times, a 0.05M phosphate-citrate buffer solution (pH5) containing o-phenylenediamine(0.4 mg/ml) (manufactured by Sigma Co.) and H2 O2 (0.012%) was added in a volume of 200 μl/well to develop color for 20-40 minutes. The reaction was stopped by addition of 0.3M sulfuric acid in a volume of 50 μl/well and absorbance at 490 nm was measured with Immunoreader NJ-200 (manufactured by Inter Med Co.). […]

[2] = test system: guinea pig platelets (platelet-rich plasma); experiment: In vitro inhibition of platelet aggregation in guinea pig (ADP-induced, PRP); assay type: cell-based; settings: Cavia porcellus, ADP final concentration 5 μM, read-out: Platelet aggregation inhibitory activity in guinea pig, IC50
Procedure: In vitro experiment of platelet aggregation inhibition
1. Inhibition of platelet aggregation in Guinea pig
Blood of male guinea pig was collected with an injection syringe which contains 3.8 % sodium citrate as an anticoagulant in a ratio of 1 volume to 9 volumes of the blood. Successively, the collected blood mixture was subjected to centrifugation at 120×g for 15 minutes at room temperature to obtain platelet-rich plasma (PRP). An aliquot of PRP was further subjected to centrifugation at 1,200×g for 15 minutes to obtain platelet-poor plasma (PPP). Numbers of the platelet in PRP were measured with an automatic platelet counter: Sysmex PL-100 (manufactured by Toa Iyodenshi Co.) and PRP was diluted with PPP so as to adjust a platelet concentration to be about 300,000 particles/ μl. Platelet aggregation was measured by the following procedure with a 6 channel aggregometer: HEMA TRACER 1 (manufactured by NKK Co.).
(§1) After incubation of 240 μl of PRP at 37° C. for 2 minutes, 30 μl of the solvent of specimen as a control or of the specimen in various concentrations was added to PRP. Further 2 minutes later, 30 μl of adenosine diphosphate (final concentration: 5μM) was added to induce platelet aggregation. An inhibition percentage was obtained by comparing the maximum aggregation of the specimen drug group with that of control. […]

[3] = test system: human platelets (platelet-rich plasma); experiment: In vitro inhibition of platelet aggregation in human (ADP-induced, PRP); assay type: cell-based; settings: ADP final concentration 5 μM, read-out: Platelet aggregation inhibitory activity in human, IC50
Procedure: 2. Inhibition of platelet aggregation in human
Blood was collected from healthy human volunteers with an injection syringe and mixed one volume of 3.8% of sodium citrate as an anticoagulant to 9 volumes of the blood. Successively, the obtained blood mixture was subjected to centrifugation at 120×g for 15 minutes at room temperature to obtain platelet-rich plasma (PRP). An aliquot of PRP was further subjected to centrifugation at 1,200×g for 20 minutes to obtain platelet-poor plasma (PPP). Numbers of the platelet were measured with an automatic platelet counter: Sysmex PL-100 (manufactured by Toa Iyodenshi Co.) and PRP was diluted with PPP so as to adjust a platelet concentration to be about 250,000 particles/μl. Platelet aggregation was measured by the following procedure with a 6 channel aggregometer: HEMA TRACER 1 (manufactured by NKK Co.)
as §1, with “or” for “or of”, “5 μM)” for “5μM)”

T1 sequence (P08514 32-887 limits assumed): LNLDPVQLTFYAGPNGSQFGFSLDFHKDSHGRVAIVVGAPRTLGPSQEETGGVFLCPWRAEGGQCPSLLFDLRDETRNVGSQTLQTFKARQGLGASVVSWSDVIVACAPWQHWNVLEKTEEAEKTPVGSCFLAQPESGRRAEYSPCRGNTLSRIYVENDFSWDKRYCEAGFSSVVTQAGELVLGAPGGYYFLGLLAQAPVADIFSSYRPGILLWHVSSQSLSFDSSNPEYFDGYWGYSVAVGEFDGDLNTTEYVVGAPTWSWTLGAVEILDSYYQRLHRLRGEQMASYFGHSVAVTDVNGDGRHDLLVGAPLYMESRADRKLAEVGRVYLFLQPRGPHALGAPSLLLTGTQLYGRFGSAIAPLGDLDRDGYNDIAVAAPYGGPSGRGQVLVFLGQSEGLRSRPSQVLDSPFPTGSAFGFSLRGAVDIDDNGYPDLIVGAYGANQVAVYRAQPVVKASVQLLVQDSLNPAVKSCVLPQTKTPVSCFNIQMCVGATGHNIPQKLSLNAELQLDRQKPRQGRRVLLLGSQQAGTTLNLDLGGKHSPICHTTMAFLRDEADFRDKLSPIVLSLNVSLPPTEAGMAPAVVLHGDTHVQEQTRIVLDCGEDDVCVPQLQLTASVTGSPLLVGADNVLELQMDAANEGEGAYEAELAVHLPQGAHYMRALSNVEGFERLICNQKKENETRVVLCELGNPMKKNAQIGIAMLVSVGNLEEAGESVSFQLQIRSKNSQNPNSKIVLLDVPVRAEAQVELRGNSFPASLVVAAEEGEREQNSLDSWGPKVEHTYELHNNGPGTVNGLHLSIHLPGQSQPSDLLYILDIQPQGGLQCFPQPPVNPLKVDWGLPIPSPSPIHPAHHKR
T1 sequence (P08514 891-1039 partner limits assumed): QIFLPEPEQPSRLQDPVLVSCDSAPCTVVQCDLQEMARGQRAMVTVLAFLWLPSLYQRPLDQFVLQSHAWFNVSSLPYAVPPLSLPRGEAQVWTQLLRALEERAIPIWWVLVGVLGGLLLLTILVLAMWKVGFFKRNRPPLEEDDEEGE
T1 sequence (P05106 27-788): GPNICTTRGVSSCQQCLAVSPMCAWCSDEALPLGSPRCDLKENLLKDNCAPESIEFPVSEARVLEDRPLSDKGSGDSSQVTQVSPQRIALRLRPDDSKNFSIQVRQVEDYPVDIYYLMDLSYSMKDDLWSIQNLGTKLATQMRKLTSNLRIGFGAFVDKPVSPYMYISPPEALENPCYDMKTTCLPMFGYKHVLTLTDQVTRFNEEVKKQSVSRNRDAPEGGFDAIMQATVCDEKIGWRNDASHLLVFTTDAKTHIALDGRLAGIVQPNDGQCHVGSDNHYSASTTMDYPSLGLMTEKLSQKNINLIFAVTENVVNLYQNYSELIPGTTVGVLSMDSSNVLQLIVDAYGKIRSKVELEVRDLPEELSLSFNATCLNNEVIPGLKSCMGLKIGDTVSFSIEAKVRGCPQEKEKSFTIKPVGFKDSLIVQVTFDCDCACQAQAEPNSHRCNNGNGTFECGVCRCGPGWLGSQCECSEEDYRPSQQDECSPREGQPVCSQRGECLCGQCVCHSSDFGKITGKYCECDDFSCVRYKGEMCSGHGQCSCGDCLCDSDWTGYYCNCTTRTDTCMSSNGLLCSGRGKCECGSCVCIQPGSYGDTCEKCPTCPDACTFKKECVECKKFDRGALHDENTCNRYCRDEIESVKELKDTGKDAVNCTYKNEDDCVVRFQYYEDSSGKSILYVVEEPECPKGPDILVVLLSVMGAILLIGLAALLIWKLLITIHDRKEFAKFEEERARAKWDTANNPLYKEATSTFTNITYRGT

N=C(c1ccc(C(=O)Nc2ccc3c(c2)CC(CC(=O)O)CC3)cc1)N1CCOCC1 (single isomer, unassigned; (-)) [Example 48, (-)-7-[[4-(morpholinoiminomethyl)benzoyl]amino]-1,2,3,4-tetrahydronaphthalene-2-acetic acid hydrochloride]
IC50 [1]: 0.07 nM | IC50 [2]: 69 nM | IC50 [3]: 33 nM

N=C(c1ccc(C(=O)Nc2ccc3c(c2)CC(CC(=O)O)CC3)cc1)N1CCOCC1 (stereo not drawn) [Example 2, 7-[[4-(morpholinoiminomethyl)benzoyl]amino]-1,2,3,4-tetrahydronaphthalene-2-acetic acid hydrochloride]
IC50 [1]: 0.13 nM | IC50 [2]: 140 nM | IC50 [3]: 68 nM
